Experimental data: US10683290B2, “Tricyclic compounds as anticancer agents” (BRISTOL-MYERS SQUIBB COMPANY, priority 2015, dated 2020)

Target: BRD4 (Homo sapiens, UniProt O60885)
Assay: biochemical
Type: binding
Conditions: one of the FRET assays described; read-out: FRET BRD4 IC50

[2H]C([2H])([2H])c1nnn(C)c1-c1ccc2c3ncc(S(C)(=O)=O)cc3n([C@H](c3ccccc3)C3CCOCC3)c2c1 [Example 27, 5-{3-Methanesulfonyl-5-[(S)-oxan-4-yl(phenyl)methyl]-5H-pyrido[3,2-b]indol-7-yl}-4-(^2H3)methyl-1-methyl-1H-1,2,3-triazole]
IC50: < 5 nM

[2H]C([2H])([2H])c1nnn(C)c1-c1cc2c(cc1F)c1ncc(S(C)(=O)=O)cc1n2[C@H](c1ccccc1F)C1CCOCC1 [Example 28, 5-{8-Fluoro-5-[(S)-(2-fluorophenyl)(oxan-4-yl)methyl]-3-methanesulfonyl-5H-pyrido[3,2-b]indol-7-yl}-4-(^2H3)methyl-1-methyl-1H-1,2,3-triazole]
IC50: < 1 nM

Cc1nnn(C)c1-c1ccc2c3ncc(C(=O)O)cc3n([C@H](c3ccccc3F)C3CCOCC3)c2c1 [Example 29, 7-(Dimethyl-1H-1,2,3-triazol-5-yl)-5-[(S)-(2-fluorophenyl)(oxan-4-yl)methyl]-5H-pyrido[3,2-b]indole-3-carboxylic acid]
IC50: < 5 nM

[2H]C([2H])([2H])c1nnn(C)c1-c1cc2c(cc1F)c1ncc(C(C)(C)O)cc1n2C(c1ncccc1F)C1CCOCC1 (stereo not shown) [Example 30, 2-{8-Fluoro-5-[(3-fluoropyridin-2-yl)(oxan-4-yl)methyl]-7-[4-(^2H3)methyl-1-methyl-1H-1,2,3-triazol-5-yl]-5H-pyrido[3,2-b]indol-3-yl}propan-2-ol]
IC50: < 1 nM

[2H]C([2H])([2H])c1nnn(C)c1-c1cc2c(cc1F)c1ncc(C(C)(C)O)cc1n2C(c1ncccc1F)C1CCOCC1 (stereo not shown) [Example 31, 2-{8-Fluoro-5-[(3-fluoropyridin-2-yl)(oxan-4-yl)methyl]-7-[4-(^2H3)methyl-1-methyl-1H-1,2,3-triazol-5-yl]-5H-pyrido[3,2-b]indol-3-yl}propan-2-ol]
IC50: < 5 nM

[2H]C([2H])([2H])c1nnn(C)c1-c1cc2c(cc1F)c1ncc(C(C)(C)O)cc1n2[C@H](c1ccccc1)C1CCOCC1 [Example 32, 2-{8-Fluoro-7-[4-(^2H3)methyl-1-methyl-1H-1,2,3-triazol-5-yl]-5-[(S)-(oxan-4-yl)(phenyl)methyl]-5H-pyrido[3,2-b]indol-3-yl}propan-2-ol]
IC50: < 1 nM

[2H]C([2H])([2H])c1onc(C)c1-c1cc2c(cc1F)c1ncc(C(C)(C)O)cc1n2[C@H](c1ccccc1)C1CCOCC1 [Example 33, 2-{8-Fluoro-7-[5-(^2H3)methyl-3-methyl-1,2-oxazol-4-yl]-5-[(S)-(oxan-4-yl)(phenyl)methyl]-5H-pyrido[3,2-b]indol-3-yl}propan-2-ol]
IC50: < 1 nM

[2H]C([2H])([2H])c1nnn(C)c1-c1cc2c(cc1F)c1ncc(C(C)(C)O)cc1n2C(c1cc(C)on1)C1CCOCC1 (stereo not shown) [Example 34, 2-{8-Fluoro-5-[(5-methyl-1,2-oxazol-3-yl)(oxan-4-yl)methyl]-7-[4-(^2H3)methyl-1-methyl-1H-1,2,3-triazol-5-yl]-5H-pyrido[3,2-b]indol-3-yl}propan-2-ol]
IC50: < 1 nM

[2H]C([2H])([2H])c1nnn(C)c1-c1cc2c(cc1F)c1ncc(C(C)(C)O)cc1n2C(c1cc(C)on1)C1CCOCC1 (stereo not shown) [Example 35, 2-{8-Fluoro-5-[(5-methyl-1,2-oxazol-3-yl)(oxan-4-yl)methyl]-7-[4-(^2H3)methyl-1-methyl-1H-1,2,3-triazol-5-yl]-5H-pyrido[3,2-b]indol-3-yl}propan-2-ol]
IC50: < 1500 nM

[2H]C([2H])([2H])c1nnn(C)c1-c1cc2c(cc1Cl)c1ncc(C(C)(C)O)cc1n2[C@H](c1ccccc1)C1CCOCC1 [Example 77, 2-{8-chloro-7-[4-(^2H3)methyl-1-methyl-1H-1,2,3-triazol-5-yl]-5-[(S)-oxan-4-yl(phenyl)methyl]-5H-pyrido[3,2-b]indol-3-yl}propan-2-ol]
IC50: < 1500 nM
